From ChEMBL document CHEMBL5696442, “Discovery of type II inhibitors of TGFβ-activated kinase 1 (TAK1) and mitogen-activated protein kinase kinase kinase kinase 2 (MAP4K2)” (J Med Chem, 2015)
Calls of active or inactive are those of the source. No cut-off for these calls is given here.

Assays:
[1] = target: T1, Scaffold protein ILK (Homo sapiens) (UniProt Q13418); assay: Inhibition of ILK Protein Kinase Domain in human A-375 cells at 0.05 uM by KiNativ Profiling analysis relative to control; format: cell-based
T1 sequence (whole entry): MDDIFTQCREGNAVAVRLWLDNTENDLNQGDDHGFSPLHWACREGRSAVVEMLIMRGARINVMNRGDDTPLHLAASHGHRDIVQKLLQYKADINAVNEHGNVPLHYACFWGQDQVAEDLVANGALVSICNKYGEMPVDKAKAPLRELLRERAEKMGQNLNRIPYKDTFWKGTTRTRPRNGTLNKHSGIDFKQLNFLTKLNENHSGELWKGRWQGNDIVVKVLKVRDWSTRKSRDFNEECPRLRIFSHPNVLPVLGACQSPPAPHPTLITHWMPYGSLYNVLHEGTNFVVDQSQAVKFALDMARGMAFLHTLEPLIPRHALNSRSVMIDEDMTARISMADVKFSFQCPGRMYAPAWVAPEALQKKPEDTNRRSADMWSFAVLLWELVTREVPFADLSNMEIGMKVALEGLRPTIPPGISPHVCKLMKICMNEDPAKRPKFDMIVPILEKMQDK

[2] = target: Hormonally up-regulated neu tumor-associated kinase (Homo sapiens) (UniProt P57058); assay: Inhibition of HUNK (unknown origin) at 1 uM by Ambit Kinomescan binding assay relative to control; values are per cent of control
[3] = target: Proto-oncogene tyrosine-protein kinase receptor Ret (Homo sapiens) (UniProt P07949); assay: Inhibition of RET (unknown origin) at 1 uM by Ambit Kinomescan binding assay relative to control; values are per cent of control
[4] = target: T2, Serine/threonine-protein kinase Sgk3 (Homo sapiens) (UniProt Q96BR1); assay: Inhibition of SGK3 K1 labeling site in human Huh-7 cells at 1 uM by KiNativ Profiling analysis relative to control; format: cell-based
T2 sequence (whole entry): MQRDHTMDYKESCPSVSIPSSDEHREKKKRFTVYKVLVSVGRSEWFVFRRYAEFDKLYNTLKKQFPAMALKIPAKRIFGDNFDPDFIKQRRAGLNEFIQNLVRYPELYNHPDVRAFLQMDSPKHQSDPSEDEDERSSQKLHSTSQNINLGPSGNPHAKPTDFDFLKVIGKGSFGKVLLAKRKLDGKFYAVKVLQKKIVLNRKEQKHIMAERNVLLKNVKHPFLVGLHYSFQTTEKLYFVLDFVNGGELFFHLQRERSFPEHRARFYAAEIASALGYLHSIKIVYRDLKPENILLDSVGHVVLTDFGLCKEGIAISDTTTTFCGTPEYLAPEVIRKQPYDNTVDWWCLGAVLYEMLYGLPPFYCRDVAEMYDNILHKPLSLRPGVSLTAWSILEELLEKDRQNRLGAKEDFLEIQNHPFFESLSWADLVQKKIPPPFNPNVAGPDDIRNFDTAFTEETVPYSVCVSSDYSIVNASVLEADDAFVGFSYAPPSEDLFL

[5] = target: Epidermal growth factor receptor (Homo sapiens) (UniProt P00533); assay: Inhibition of EGFR ACT labeling site harbouring ITDFGLAKLLGAEEK in human A-375 cells at 0.5 uM by KiNativ Profiling analysis relative to control; format: cell-based
[6] = target: Tyrosine-protein kinase Yes (Homo sapiens) (UniProt P07947); assay: Inhibition of YES (unknown origin) at 10 uM by Ambit Kinomescan binding assay relative to control; values are per cent of control
[7] = target: Tyrosine-protein kinase CSK (Homo sapiens, UniProt P41240); assay: Inhibition of CSK ACT labeling site harbouring VSDFGLTKEASSTQDTGKLPVK in human Huh-7 cells at 1 uM by KiNativ Profiling analysis relative to control; format: cell-based
[8] = target: T3, Mitogen-activated protein kinase kinase kinase kinase 2 (Homo sapiens) (UniProt Q12851); assay: Inhibition of MAP4K2 Lys1 labeling site in human A-375 cells at 5 uM by KiNativ Profiling analysis relative to control; format: cell-based
T3 sequence (whole entry): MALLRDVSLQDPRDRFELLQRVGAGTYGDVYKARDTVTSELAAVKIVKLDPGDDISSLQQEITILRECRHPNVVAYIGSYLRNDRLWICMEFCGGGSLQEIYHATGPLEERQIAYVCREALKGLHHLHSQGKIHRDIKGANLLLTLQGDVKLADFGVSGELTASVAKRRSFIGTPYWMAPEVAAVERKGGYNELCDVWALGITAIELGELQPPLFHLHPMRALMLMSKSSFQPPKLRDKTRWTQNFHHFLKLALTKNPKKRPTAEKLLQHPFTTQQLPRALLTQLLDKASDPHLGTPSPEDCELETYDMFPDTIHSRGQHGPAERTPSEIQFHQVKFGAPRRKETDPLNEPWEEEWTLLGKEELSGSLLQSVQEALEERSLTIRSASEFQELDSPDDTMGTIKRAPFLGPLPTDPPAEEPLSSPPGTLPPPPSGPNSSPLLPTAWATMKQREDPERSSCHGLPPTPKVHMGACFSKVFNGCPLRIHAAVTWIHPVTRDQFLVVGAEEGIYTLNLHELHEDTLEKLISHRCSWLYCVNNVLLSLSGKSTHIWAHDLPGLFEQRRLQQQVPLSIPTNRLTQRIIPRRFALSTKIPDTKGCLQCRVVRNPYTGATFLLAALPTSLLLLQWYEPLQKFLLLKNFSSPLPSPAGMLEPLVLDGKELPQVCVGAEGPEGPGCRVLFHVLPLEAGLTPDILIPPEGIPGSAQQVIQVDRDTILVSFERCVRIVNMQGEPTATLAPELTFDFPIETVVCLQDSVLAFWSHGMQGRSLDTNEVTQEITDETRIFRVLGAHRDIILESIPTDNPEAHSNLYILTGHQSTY

[9] = target: Ephrin type-B receptor 1 (Homo sapiens) (UniProt P54762); assay: Inhibition of EPHB1 (unknown origin) at 10 uM by Ambit Kinomescan binding assay
[10] = target: Ribosomal protein S6 kinase alpha-1 (Homo sapiens) (UniProt Q15418); assay: Inhibition of RSK1 domain1 Lys1 labeling site in human A-375 cells at 0.5 uM by KiNativ Profiling analysis relative to control; format: cell-based
[11] = target: Serine/threonine-protein kinase B-raf (Homo sapiens, UniProt P15056); assay: Inhibition of BRAF Lys2 labeling site in human Huh-7 cell lysate at 1 uM by KiNativ Profiling analysis relative to control; format: subcellular
[12] = target: Ribosomal protein S6 kinase alpha-3 (Homo sapiens) (UniProt P51812); assay: Inhibition of RSK2 domain 1 Lys2 labeling site harbouring DLKPENILLDEEGHIKLTDFGLSK in human Huh-7 cell lysate at 1 uM by KiNativ Profiling analysis relative to control; format: subcellular
Sequence of Ribosomal protein S6 kinase alpha-3 (Homo sapiens) (P51812 whole entry, the tested form may be a part): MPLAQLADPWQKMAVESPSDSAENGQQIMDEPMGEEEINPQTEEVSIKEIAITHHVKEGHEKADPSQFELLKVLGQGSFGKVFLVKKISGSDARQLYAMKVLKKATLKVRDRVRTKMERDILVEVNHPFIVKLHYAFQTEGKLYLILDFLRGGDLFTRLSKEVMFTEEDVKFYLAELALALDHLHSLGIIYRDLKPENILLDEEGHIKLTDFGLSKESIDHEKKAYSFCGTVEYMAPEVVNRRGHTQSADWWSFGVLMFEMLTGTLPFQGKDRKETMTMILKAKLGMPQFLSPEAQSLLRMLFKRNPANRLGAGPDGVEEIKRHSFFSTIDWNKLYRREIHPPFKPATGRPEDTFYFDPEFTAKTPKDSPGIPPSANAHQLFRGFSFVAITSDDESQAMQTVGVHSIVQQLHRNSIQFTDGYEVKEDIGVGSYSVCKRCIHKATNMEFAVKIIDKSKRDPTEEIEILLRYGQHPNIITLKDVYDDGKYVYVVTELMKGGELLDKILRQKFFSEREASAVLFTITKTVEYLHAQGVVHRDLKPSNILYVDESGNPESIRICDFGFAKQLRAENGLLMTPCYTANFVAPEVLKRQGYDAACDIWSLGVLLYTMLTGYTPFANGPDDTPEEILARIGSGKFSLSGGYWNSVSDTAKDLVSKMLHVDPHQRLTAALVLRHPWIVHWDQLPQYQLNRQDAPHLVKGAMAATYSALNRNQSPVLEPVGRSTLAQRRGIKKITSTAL

Sequence of Epidermal growth factor receptor (Homo sapiens) (P00533 whole entry): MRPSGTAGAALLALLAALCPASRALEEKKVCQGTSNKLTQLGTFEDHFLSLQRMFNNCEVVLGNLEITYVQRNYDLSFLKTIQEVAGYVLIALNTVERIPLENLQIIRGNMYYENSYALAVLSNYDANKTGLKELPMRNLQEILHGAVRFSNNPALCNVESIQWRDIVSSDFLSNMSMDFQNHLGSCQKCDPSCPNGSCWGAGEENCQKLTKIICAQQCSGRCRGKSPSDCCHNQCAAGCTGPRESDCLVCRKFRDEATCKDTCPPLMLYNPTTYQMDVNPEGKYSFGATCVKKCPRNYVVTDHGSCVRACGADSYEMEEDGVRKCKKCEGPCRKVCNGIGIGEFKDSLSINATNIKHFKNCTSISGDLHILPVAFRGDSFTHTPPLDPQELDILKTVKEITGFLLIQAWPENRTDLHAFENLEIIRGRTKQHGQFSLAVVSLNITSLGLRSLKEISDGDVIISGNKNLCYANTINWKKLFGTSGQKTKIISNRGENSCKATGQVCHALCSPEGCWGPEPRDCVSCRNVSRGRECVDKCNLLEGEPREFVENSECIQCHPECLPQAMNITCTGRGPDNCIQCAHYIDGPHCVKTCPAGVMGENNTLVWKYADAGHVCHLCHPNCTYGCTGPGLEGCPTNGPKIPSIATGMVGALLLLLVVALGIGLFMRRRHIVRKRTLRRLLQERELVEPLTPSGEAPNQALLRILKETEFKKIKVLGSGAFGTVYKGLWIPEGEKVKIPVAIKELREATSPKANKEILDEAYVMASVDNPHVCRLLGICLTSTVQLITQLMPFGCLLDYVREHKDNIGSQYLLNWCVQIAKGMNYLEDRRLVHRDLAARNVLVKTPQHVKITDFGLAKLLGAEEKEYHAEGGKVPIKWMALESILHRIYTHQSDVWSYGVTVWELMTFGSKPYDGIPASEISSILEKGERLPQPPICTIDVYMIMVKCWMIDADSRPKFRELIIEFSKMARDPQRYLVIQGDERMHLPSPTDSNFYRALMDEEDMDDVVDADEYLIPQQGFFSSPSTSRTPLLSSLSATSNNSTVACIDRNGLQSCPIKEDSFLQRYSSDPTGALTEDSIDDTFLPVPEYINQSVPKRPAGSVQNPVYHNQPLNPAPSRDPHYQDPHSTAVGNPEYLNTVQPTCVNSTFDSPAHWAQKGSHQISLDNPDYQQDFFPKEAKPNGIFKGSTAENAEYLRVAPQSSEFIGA
Sequence of Tyrosine-protein kinase CSK (P41240 2-450 limits assumed): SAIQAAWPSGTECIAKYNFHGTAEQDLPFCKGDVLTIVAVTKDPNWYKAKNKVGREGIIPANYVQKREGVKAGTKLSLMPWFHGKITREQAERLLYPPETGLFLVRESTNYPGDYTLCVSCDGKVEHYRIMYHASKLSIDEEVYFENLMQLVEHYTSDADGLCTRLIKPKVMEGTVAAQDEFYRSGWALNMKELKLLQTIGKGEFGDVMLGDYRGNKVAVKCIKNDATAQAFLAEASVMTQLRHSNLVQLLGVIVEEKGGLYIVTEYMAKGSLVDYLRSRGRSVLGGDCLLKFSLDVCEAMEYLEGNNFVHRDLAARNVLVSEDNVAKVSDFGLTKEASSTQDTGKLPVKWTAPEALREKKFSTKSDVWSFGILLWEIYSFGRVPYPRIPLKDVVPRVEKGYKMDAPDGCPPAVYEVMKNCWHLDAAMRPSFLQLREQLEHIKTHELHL
Sequence of Hormonally up-regulated neu tumor-associated kinase (Homo sapiens) (P57058 whole entry): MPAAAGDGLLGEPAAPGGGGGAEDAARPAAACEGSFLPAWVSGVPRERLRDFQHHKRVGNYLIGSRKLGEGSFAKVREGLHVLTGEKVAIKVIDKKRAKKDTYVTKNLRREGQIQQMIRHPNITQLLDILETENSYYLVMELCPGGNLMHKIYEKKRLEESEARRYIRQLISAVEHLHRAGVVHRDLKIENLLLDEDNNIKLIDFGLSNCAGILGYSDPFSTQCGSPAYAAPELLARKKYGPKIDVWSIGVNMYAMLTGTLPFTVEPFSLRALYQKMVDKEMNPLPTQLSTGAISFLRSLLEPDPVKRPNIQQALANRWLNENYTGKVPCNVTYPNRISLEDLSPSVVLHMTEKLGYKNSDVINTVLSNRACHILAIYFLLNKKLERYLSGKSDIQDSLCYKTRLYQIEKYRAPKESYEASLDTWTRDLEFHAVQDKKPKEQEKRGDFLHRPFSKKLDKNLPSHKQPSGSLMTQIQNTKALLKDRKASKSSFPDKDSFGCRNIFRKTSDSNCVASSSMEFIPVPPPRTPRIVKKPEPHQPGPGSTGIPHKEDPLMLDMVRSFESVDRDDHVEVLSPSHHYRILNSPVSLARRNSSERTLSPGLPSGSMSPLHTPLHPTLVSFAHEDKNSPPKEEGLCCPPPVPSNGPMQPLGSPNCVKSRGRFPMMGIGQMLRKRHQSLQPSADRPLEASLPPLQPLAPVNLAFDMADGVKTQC
Sequence of Ribosomal protein S6 kinase alpha-1 (Homo sapiens) (Q15418 whole entry, the tested form may be a part): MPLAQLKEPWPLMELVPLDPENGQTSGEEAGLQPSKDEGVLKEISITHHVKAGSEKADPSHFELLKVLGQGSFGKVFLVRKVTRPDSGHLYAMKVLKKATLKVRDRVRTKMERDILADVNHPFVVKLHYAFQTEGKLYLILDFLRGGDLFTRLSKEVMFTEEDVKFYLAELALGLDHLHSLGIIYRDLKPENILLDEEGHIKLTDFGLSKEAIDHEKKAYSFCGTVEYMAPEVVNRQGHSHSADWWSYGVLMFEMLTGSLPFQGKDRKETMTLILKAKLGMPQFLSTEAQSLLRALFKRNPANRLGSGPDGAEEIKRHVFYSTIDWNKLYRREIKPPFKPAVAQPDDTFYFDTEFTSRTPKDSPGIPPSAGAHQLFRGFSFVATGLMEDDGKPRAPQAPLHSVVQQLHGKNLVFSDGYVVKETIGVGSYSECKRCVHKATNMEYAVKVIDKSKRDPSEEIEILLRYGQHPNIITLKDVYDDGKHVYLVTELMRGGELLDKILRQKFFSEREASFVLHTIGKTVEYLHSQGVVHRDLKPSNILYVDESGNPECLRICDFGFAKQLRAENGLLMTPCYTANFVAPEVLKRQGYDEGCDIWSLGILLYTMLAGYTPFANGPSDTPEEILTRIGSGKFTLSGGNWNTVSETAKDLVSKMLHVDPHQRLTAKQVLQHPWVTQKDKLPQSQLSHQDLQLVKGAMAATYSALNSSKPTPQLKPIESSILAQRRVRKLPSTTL
Sequence of Tyrosine-protein kinase Yes (Homo sapiens) (P07947 2-543 limits assumed): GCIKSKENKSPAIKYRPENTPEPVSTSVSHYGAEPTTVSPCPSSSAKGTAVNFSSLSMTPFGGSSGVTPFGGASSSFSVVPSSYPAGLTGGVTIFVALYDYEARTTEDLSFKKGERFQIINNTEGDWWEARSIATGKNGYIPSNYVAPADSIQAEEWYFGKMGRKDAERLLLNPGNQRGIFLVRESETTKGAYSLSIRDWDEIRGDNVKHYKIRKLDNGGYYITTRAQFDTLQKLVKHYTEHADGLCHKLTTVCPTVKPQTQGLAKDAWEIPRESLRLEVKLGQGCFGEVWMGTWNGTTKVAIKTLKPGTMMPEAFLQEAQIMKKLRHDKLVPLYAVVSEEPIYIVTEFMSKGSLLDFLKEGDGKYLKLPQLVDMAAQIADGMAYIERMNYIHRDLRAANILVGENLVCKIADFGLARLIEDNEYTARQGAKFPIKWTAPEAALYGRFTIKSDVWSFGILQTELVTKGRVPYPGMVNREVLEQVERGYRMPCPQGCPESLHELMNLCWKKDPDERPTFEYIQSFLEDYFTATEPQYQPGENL

With `CCN1CCN(Cc2ccc(NC(=O)c3ccc(C)c(/C=C/c4cnc5[nH]ccc5c4OC)c3)cc2C(F)(F)F)CC1` the inhibition [1] was -9.6%, the residual activity [2] was 57% and the percent of control [3] was 0%.
`CCN1CCN(Cc2ccc(NC(=O)c3ccc(C)c(Oc4ccnc5[nH]ccc45)c3)cc2C(F)(F)F)CC1` was tested, and the inhibition [4] was 8.8%, the inhibition [5] was 0.7% and the residual activity [6] was 1.6%. The inhibition [7] was 2.4%, the inhibition [8] was > 99.5% and the inhibition [9] was “inactive”. The inhibition [10] was -0.7%.
For `CNc1cc(Oc2cc(C(=O)Nc3cc(N4CCN(C)CC4)cc(C(F)(F)F)c3)ccc2C)ncn1`, the inhibition [11] was -1.4% and the inhibition [12] was 3.1%.
